# Source: patent US20250360057A1, “ENHANCING DENTIN BONDING DURABILITY USING QUATERNARY PYRIDINIUM SALTS” (ADA Science and Research Institute LLC, priority 2022, published 2025)
# Key:
# Format in all cases: physicochemical
# [1] = Degree of (vinyl) conversion (DC) of cured dental adhesive/resin by FT-IR (ATR); conditions: for Degree of Conversion: resin 70 wt % Bis-GMA / 30 wt % TEGDMA with CQ/4E; for change of Degree of Conversion (in words) / decrease of Degree of Conversion / increase of Degree of Conversion: versus resin without additive; for change of Degree of Conversion (in words) / decrease of Degree of Conversion: Bis-GMA/TEGDMA resin; for increase of Degree of Conversion: 70 wt % Bis-GMA / 30 wt % TEGDMA, CQ/4E; for Degree of Conversion (%): approx 0.25 wt % additive; for effect on DC (in words): both adhesives (SB and B6H4)
# [2] = target: T1, pseudocholine esterase from equine serum (PCE) (Equus caballus, UniProt P81908); experiment: Biostability: AFM-based step height change (ΔH) under enzymatic challenge
# T1 construct: pseudocholine esterase from equine serum; purchased Sigma C7512; host or cells: equine serum
# T1 sequence (P81908 whole entry): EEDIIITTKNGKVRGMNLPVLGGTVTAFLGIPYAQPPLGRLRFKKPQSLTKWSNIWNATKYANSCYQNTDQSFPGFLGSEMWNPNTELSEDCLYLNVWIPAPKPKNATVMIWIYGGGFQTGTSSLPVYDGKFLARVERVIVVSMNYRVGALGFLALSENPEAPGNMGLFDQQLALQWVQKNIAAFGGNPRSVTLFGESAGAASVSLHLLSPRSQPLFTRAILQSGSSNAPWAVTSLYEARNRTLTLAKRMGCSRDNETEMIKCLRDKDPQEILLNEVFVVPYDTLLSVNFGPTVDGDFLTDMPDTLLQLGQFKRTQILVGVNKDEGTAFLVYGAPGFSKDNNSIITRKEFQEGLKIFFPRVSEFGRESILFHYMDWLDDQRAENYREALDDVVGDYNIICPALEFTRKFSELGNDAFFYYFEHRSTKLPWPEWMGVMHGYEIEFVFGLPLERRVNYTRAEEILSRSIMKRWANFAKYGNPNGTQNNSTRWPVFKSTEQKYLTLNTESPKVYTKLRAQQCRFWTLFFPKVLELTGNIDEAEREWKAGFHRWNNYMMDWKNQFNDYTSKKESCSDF
# [3] = target: T1, pseudocholine esterase from equine serum (PCE); experiment: as above; remark: listed apart in the source
# Excerpt: Various embodiments of the present application can be better understood by reference to the following Examples which are offered by way of illustration. The scope of the present application is not limited to the Examples given herein. The enzymatic challenge measurement method described herein is described in Wang X, Song S, Chen L, Stafford CM, Sun J, Acta Biomater., 2018, 74, 326, and Yamauchi S, Wang X, Egusa H, Sun J. “High-performance dental adhesives containing an ether-based monomer” Journal of Dental Research, 2020, 99, 189, which are both incorporated by reference herein in their entireties.
# Biostability of the dental materials such as resins and adhesives is of critical importance to their durability. These materials may break down in the oral environment, which may be due to enzymatic and/or bacterial challenges, which can result in failure of the restoration and secondary caries. The stability against enzymatic challenges of dental materials including adhesives and resins, with and without additives, was evaluated using an atomic force microscopy (AFM)-based method, described by Wang et al., in “Short-time dental resin biostability and kinetics of enzymatic degradation”, Acta Biomaterialia, Volume 74, 1 Jul. 2018, Pages 326-333, incorporated herein in its entirety. Briefly, this method allows evaluation of materials by assessing the step height (H) and the changes in the step height (ΔH), that are caused by enzymatic exposure. The ΔH values are caused as material exposed to salivary enzymes or the like is removed due to degradation of the exposed material.
# The stability of SB was compared to the same adhesive incorporating Azo-QPS-C16 as an additive at approximately 0.25 wt %. Samples were prepared according to the method described by Wang, and were exposed to either pseudocholine esterase from equine serum (PCE, Product No. C7512, Sigma, Saint Louis, MO, USA) were reconstituted in saline solution containing 40 mM magnesium chloride and 99 mM of sodium chloride following vender's instruction, or a control solution without PCE for various times up to 72 hours. […] For the SB sample exposed to PCE, the ΔH value increased to about 175 nm. In comparison, the addition of approximately 0.25 wt % Azo-QPS-C16 reduced the ΔH values after 72 hours to about 50 nm and about 60 nm for the control and PCE-exposed samples, respectively, thus showing inclusion of Azo-QPC-C16 in the adhesive improved the stability dramatically.
# [4] = Glass transition temperature (Tg) / tan δ peak by dynamic mechanical analysis (DMA)
# Procedure: The degree of conversion (DC) and glass transition temperature (Tg) of adhesives and resins with or without the additives (such as Azo-QPS-C16) were measured by Fourier transform infrared (FTIR) spectrometer and dynamic mechanical analyzer (DMA), respectively. The stability against enzymatic challenges of four adhesives (and resins) was evaluated using an atomic force microscopy (AFM)-based method. The adhesives' bonding strength and bonding durability are determined and compared based on shear bond strength (SBS), micro-tensile bond strength (pTBS), and bonding durability under the challenges of thermal cycling.
# The glass transition temperature (Tg) of adhesives with or without additive were measured by dynamic mechanical analysis (DMA).
# [5] = B6H4, approximately 0.25 wt % additive
smiles,measurement,setting,value
"C=C(C)C(=O)Oc1ccc(/N=N/c2ccncc2)cc1 [Azo-Py-MA, reference compound]",Degree of Conversion,[1]; 0.5 wt % additive,70.2%
same,change of Degree of Conversion (in words),[1],no change
"Oc1ccc(/N=N/c2ccncc2)cc1 [Azo-Py-OH, reference compound]",Degree of Conversion,[1]; 0.5 wt % additive,68.4%
same,decrease of Degree of Conversion,[1],1.8%
"CC(C)C(=O)Oc1ccc(/N=N/c2ccncc2)cc1 [Azo-Py-iBu, (E)-4-(pyridin-4-yldiazenyl)phenyl isobutyrate, reference compound]",Degree of Conversion,[1]; 0.5 wt % additive,66.7%
same,decrease of Degree of Conversion,[1],3.5%
C=C(C)C(=O)Oc1ccc(/N=N/c2cc[n+](CC)cc2)cc1.[Br-] [Azo-QPS-C2-MA],Degree of Conversion,[1]; 0.5 wt % additive,72.3%
same,increase of Degree of Conversion,[1]; 0.5 wt % additive,2.1%
"C=C(C)C(=O)Oc1ccc(/N=N/c2cc[n+](CCCCCCCCCCCCCCCC)cc2)cc1.[Br-] [Azo-QPS-C16, (E)-1-hexadecyl-4-((4-(methacryloyloxy)phenyl)diazenyl)-pyridinium bromide]",ΔH,"[2]; B6H4 with CQ/4E, approximately 0.25 wt % additive, control, after 72 hours",about 50 nm
same,ΔH,"[2]; B6H4 with CQ/4E, approximately 0.25 wt % additive, exposed to PCE, after 72 hours",about 70 nm
same,effect on ΔH values (in words),"[2]; adhesives PBNT, SBP, SUP, EBSE and XIV, approximately 0.25 wt % additive versus no additive (FIGS. 8-12)",decreased the ΔH values
same,DC (%),"[1]; B6H4/CQ/4E, 0.1 wt % additive",76.9 ± 0.7%
same,DC (%),"[1]; B6H4/CQ/4E, 0.25 wt % additive",79.5 ± 0.8%
same,DC (%),"[1]; B6H4/CQ/4E, 0.5 wt % additive",80.5 ± 1.2%
same,DC (%),"[1]; B6H4/CQ/4E, 1.0 wt % additive",81.3 ± 1.4%
same,DC (%),"[1]; B6H4/CQ/4E, 1.25 wt % additive",76.2 ± 1.5%
same,DC (%),"[1]; B6H4/CQ/4E, 1.5 wt % additive",64.4 ± 2.2%
same,DC (%),"[1]; B6H4/CQ/4E, 2.0 wt % additive",26.0 ± 2.6%
same,Degree of Conversion (%),[1]; EBSE adhesive,73.7 ± 0.6%
same,Degree of Conversion (%),[1]; PBNT adhesive,66.4 ± 0.7%
same,Degree of Conversion (%),[1]; SBP adhesive,70.3 ± 0.5%
same,Degree of Conversion (%),[1]; SUP adhesive,72.5 ± 1.0%
same,DC (%),"[1]; Scotchbond Multi-Purpose (SB), 0.1 wt % additive",76.1 ± 0.8%
same,DC (%),"[1]; Scotchbond Multi-Purpose (SB), 0.25 wt % additive",78.6 ± 0.9%
same,DC (%),"[1]; Scotchbond Multi-Purpose (SB), 0.5 wt % additive",79.2 ± 1.1%
same,DC (%),"[1]; Scotchbond Multi-Purpose (SB), 1.0 wt % additive",79.5 ± 1.4%
same,DC (%),"[1]; Scotchbond Multi-Purpose (SB), 1.25 wt % additive",75.5 ± 1.5%
same,DC (%),"[1]; Scotchbond Multi-Purpose (SB), 1.5 wt % additive",55.0 ± 1.4%
same,DC (%),"[1]; Scotchbond Multi-Purpose (SB), 2.0 wt % additive",12.8 ± 3.1%
same,Degree of Conversion (%),[1]; XIV adhesive,74.2 ± 1.1%
same,effect on DC (in words),[1]; approximately 0.1 wt % additive,enhances the DC of both adhesives
same,effect on DC (in words),[1]; more than approximately 1.25 wt % additive (about 1.5 or 2 wt %),significant DC decrease
same,Degree of Conversion,[1]; 0.5 wt % additive,74.5%
same,increase of Degree of Conversion,[1]; 0.5 wt % additive,4.3%
same,ΔH,"[3]; SB, approximately 0.25 wt % additive, PCE-exposed, after 72 hours",about 60 nm
same,ΔH,"[3]; SB, approximately 0.25 wt % additive, control solution without PCE, after 72 hours",about 50 nm
same,glass transition temperature (Tg),[4]; [5],increases
same,tan δ peak,[4]; [5],narrowed
same,tan δ peak,"[4]; SB, approximately 0.25 wt % additive",narrowed
CC(C)C(=O)Oc1ccc(/N=N/c2cc[n+](CCCCCBr)cc2)cc1.[Br-] [Br-C6-Azo-Py-iBu],Degree of Conversion,[1]; 0.5 wt % additive,75.1%
same,increase of Degree of Conversion,[1]; 0.5 wt % additive,4.9%
C=C(C)C(=O)OCCCCCC[n+]1ccc(/N=N/c2ccc(OC(=O)C(C)C)cc2)cc1.[Br-] [MA-C6-Azo-Py-iBu],ΔH,"[2]; B6H4, approximately 0.25 wt % additive, PCE (FIG. 6)",~65 nm
same,ΔH,"[2]; B6H4, approximately 0.25 wt % additive, control (FIG. 6)",approximately 50 nm
same,Degree of Conversion,[1]; 0.5 wt % additive,74.9%
same,increase of Degree of Conversion,[1]; 0.5 wt % additive,4.7%
same,ΔH,"[3]; Scotchbond (SB), PCE (FIG. 7)",~70 nm
same,ΔH,"[3]; Scotchbond (SB), control (FIG. 7)",approximately 50 nm
C=C(C)C(=O)OCCNC(=O)OCCCCCCCC[n+]1ccc(/N=N/c2ccc(OC(=O)C(C)C)cc2)cc1.[Br-] [MA-CB13-Azo-QPS-iBu],Degree of Conversion,[1]; 0.5 wt % additive,70.7%
same,increase of Degree of Conversion,[1]; 0.5 wt % additive,0.5%
same,biostability of the adhesives (in words),[3]; added to dental adhesives,has not been demonstrated to improve the biostability
c1ccc(/N=N/c2ccccc2)cc1 [reference compound],change of Degree of Conversion (in words),[1],No change
c1cc(N=Nc2ccncc2)ccn1 [reference compound],change of Degree of Conversion (in words),[1],No change
c1cc(CCc2ccncc2)ccn1 [reference compound],change of Degree of Conversion (in words),[1],No change
